PubChem BioAssay (NCI)
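Exposure lasted 48 hours, with cells grown in 96-well plates and compounds tested at five concentrations. The concentration for 50% growth inhibition is given as GI50. TGI denotes the concentration required for complete inhibition of growth.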

Tests used:
Test in all cases: NCI-60 cell line screen, 48 h
[1] = system: 786-0 renal
[2] = system: IGROV1 ovarian
[3] = system: K-562 leukemia
[4] = system: KM12 colon
[5] = system: LOX IMVI melanoma
[6] = system: MALME-3M melanoma
[7] = system: U251 CNS
[8] = system: UO-31 renal
[9] = system: EKVX NSCLC
[10] = system: PC-3 prostate

| SMILES | GI50 [1] | TGI [1] | GI50 [2] | TGI [2] | GI50 [3] | TGI [3] | GI50 [4] | TGI [4] | GI50 [5] | TGI [5] | GI50 [6] | TGI [6] | GI50 [7] | TGI [7] | GI50 [8] | TGI [8] | TGI [9] | GI50 [10] | TGI [10] | GI50 [9] |
| --- | --- | --- | --- | --- | --- | --- | --- | --- | --- | --- | --- | --- | --- | --- | --- | --- | --- | --- | --- | --- |
| C1C[OH+]CCNCC[OH+]CC[OH+]CCN1.[Cl-].[Pt+4] | > 100 µM | > 100 µM | > 100 µM | > 100 µM | > 100 µM | > 100 µM | > 100 µM | > 100 µM | > 100 µM | > 100 µM | > 100 µM | > 100 µM | > 100 µM | > 100 µM | > 100 µM | > 100 µM |  |  |  |  |
| COC(=O)OCC1OC(N2C(=O)NC(=O)C(Br)C2N=[N+]=[N-])CC1OC(=O)OC (configuration not stated) |  | > 100 µM |  | > 100 µM |  |  |  | > 100 µM |  | > 100 µM |  | > 100 µM |  | > 100 µM |  | > 100 µM |  |  |  |  |
| CCOC(=N)CC(=O)Nc1cccc(C)c1C |  | > 100 µM |  | > 100 µM |  |  |  | > 100 µM |  | > 100 µM |  | > 100 µM |  | > 100 µM |  | > 100 µM | > 100 µM |  |  |  |
| CN(CCCNC(=O)Cc1ccc2ccc3cccc4ccc1c2c34)CCCNc1cc(-c2ccc3ccccc3c2)nc2ccccc12 | 1.53 µM | 2.97 µM | 1.7 µM | 3.58 µM |  |  | 1.36 µM | 2.69 µM |  |  |  |  | 1.6 µM | 3.05 µM | 1.4 µM | 3.15 µM |  | 1490 nM | 3.22 µM |  |
| CC1(C)O/C(=C\c2ccccc2)C(=O)/C(=C/c2ccccc2)O1 |  | > 100 µM |  | > 100 µM |  | > 100 µM |  | > 100 µM |  | > 100 µM |  | > 100 µM |  | > 100 µM |  | > 100 µM | > 100 µM |  |  |  |
| CCCCC1(CN2CCOCC2)S/C(=N/c2nc(CC(=O)OCC)cs2)NC1=O (configuration not stated) | 37.9 µM | > 100 µM | 55.3 µM | > 100 µM | 30.9 µM | > 100 µM | 27.7 µM | > 100 µM | 20.3 µM | 42.5 µM | 25.4 µM | > 100 µM | 33.9 µM | > 100 µM | 33 µM | > 100 µM | > 100 µM |  |  | 38.9 µM |
| COC(=O)CCC(=O)CC1CC(=O)C2CCCN12 (configuration not stated) |  | > 100 µM |  | > 100 µM |  | > 100 µM |  | > 100 µM |  | > 100 µM |  | > 100 µM |  | > 100 µM |  | > 100 µM | > 100 µM |  |  |  |
| Nc1nc(CCl)nc(Nc2ccccc2)n1 |  | 4.35 µM |  | 36.1 µM |  |  |  | 30.1 µM |  |  |  | 33.7 µM |  | 15.6 µM |  | 67.3 µM |  |  |  |  |
| Cc1c(C2=C(Br)C(=O)N(C)C2=O)c(=O)n(C)c(=O)n1C |  | 32.1 µM |  | 36.5 µM |  | 59.7 µM |  | > 100 µM |  | 32.3 µM |  |  |  | > 100 µM |  | 33.3 µM | 41.8 µM |  | 49.6 µM |  |
| COc1ccc(C2c3cc(OC)c(OC)cc3C(Cc3ccc([N+](=O)[O-])cc3)C2c2ccc([N+](=O)[O-])cc2)cc1OC (configuration not stated) |  | > 100 µM |  | > 100 µM |  | > 100 µM |  | > 100 µM |  | > 100 µM |  | > 100 µM |  | > 100 µM |  | > 100 µM | > 100 µM |  |  |  |
| C=C1C(=O)O[C@H]2/C=C(/C)C3=CC(=O)[C@@](C)(C[C@@H](OC(=O)/C(C)=C\C)C12)O3 (some centres not stated) |  | 2.22 µM |  | 4.97 µM |  | 1.84 µM |  | 9.5 µM |  | 1.14 µM |  |  |  | 9.48 µM |  | 3.56 µM | 6.23 µM |  | 8.78 µM |  |
| O=S1OC2(c3ccccc3-c3ccccc32)c2ccccc21 (configuration not stated) |  | > 100 µM |  | > 100 µM |  | > 100 µM |  | > 100 µM |  | > 100 µM |  | > 100 µM |  | > 100 µM |  | > 100 µM | > 100 µM |  |  |  |
| CN1NC(=Nc2ccccc2)Sc2c1cnn(-c1ccccc1)c2=O |  | > 100 µM |  | > 100 µM |  | > 100 µM |  | > 100 µM |  | > 100 µM |  | > 100 µM |  | > 100 µM |  | > 100 µM | > 100 µM |  |  |  |
| CN(C)C(=S)/N=c1\ss/c(=N\C(=S)N(C)C)n1-c1ccc(Cl)c(Cl)c1 |  | > 100 µM |  | > 100 µM |  | > 100 µM |  | > 100 µM |  | > 100 µM |  | > 100 µM |  | > 100 µM |  | > 100 µM | > 100 µM |  |  |  |
| C[n+]1cc(C(O)c2ccc3c(c2)OCO3)c2ccccc2c1 (configuration not stated) |  | > 100 µM |  | > 100 µM |  | > 100 µM |  | > 100 µM |  | > 100 µM |  | 65 µM |  | > 100 µM |  | 92.5 µM | > 100 µM |  |  |  |
| Cc1cc(C)c(C2[C@H]3C(=O)N(c4ccc(Cc5ccc(N6C(=O)[C@@H]7ON(c8ccccc8)C(c8c(C)cc(C)cc8C)[C@@H]7C6=O)cc5)cc4)C(=O)[C@H]3ON2c2ccccc2)c(C)c1 (some centres not stated) |  | > 100 µM |  | > 100 µM |  | > 100 µM |  | > 100 µM |  | > 100 µM |  | > 100 µM |  | > 100 µM |  | > 100 µM | > 100 µM |  |  |  |
| Cc1cc(C2CC(O)C(CO)O2)cc2c(=O)[nH]c(N)nc12 (configuration not stated) | > 100 µM | > 100 µM | 71 µM | > 100 µM | > 100 µM | > 100 µM |  |  | > 100 µM | > 100 µM |  |  | > 100 µM | > 100 µM | > 100 µM | > 100 µM | > 100 µM | > 100000 nM | > 100 µM | > 100 µM |
| COC(=O)/C(C)=C/[N+](=O)[O-] |  | 32.3 µM |  | 44.1 µM |  | 13.2 µM |  | 32.9 µM |  | 38.9 µM |  | 31.4 µM |  | 32.5 µM |  | 33.3 µM | 63.6 µM |  |  |  |
| Cc1ccc(S(=O)(=O)NCCNc2nccc(-c3c(-c4ccc(F)cc4)nc4sccn34)n2)cc1 | 5.65 µM | 26.8 µM | 3.09 µM | > 100 µM |  |  |  |  | 4.86 µM | > 100 µM | 5.07 µM | > 100 µM | 4.72 µM | 22.6 µM | 2.38 µM | > 100 µM |  |  |  |  |
| CN[C@@H](C)[C@H](NC)c1ccccc1 |  | > 100 µM |  | > 100 µM |  | > 100 µM |  | > 100 µM |  | > 100 µM |  | > 100 µM |  | > 100 µM |  | > 100 µM | > 100 µM |  |  |  |
| O=C1c2ccc3c4ccccc4n(Cc4ccccc4)c3c2C(=O)N1c1ccccc1 |  | 26.7 µM |  | 35.7 µM |  | 34.2 µM |  | 30.6 µM |  | 31.4 µM |  | 29.9 µM |  | 29.3 µM |  | 30.1 µM | 39.4 µM |  |  |  |
